Measurements from the supplement of paper PMC10627819.

Assays:
[1] = test system: S. pneumoniae D39V; test: Bliss interaction score (quartile over a dose matrix) (fitness difference); higher = more antagonism (negative = synergy)
Method in brief: (§1)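 Fitness here means normalised growth, inferred for single drugs from the combination data. Growth was OD595 at entry into stationary phase, divided by the plate's robust no-drug mean and capped at 1. The Bliss score is observed minus expected fitness, with the expectation being the product, and its quartiles span technical, biological and donor/recipient replicates.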

[2] = test system: S. aureus DSM 20231; test: as above
Method in brief: as §1

[3] = test system: B. subtilis 168; test: as above
Method in brief: as §1

[4] = test system: S. aureus Newman; test: as above
Method in brief: as §1

[5] = test system: S. pneumoniae D39V; test: fitness (endpoint OD595 vs no drug) (fraction); higher = more growth
Method in brief: (§2)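 At 37 °C, bacteria in TSB, LB Lennox or CY were grown in 384-well plates from a starting OD595 of 0.01. OD595 was measured every 30 min for 14 h, with the first reading used as background. Fitness is the optical density at the switch to stationary phase as a fraction of the robust mean of no-drug control wells, capped at 1.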

[6] = test system: S. aureus DSM 20231; test: as above
Method in brief: as §2

[7] = test system: B. subtilis 168; test: as above
Method in brief: as §2
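Wherever Bliss interaction score (quartile over a dose matrix) is given: first quartile when negative (synergy) and third quartile when positive (antagonism).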
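Wherever fitness (endpoint OD595 vs no drug) is given: OD595 on entry to stationary phase over no-drug wells; at most 1.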

CO/N=C(\C(=O)N[C@@H]1C(=O)N2C(C(=O)O)=C(COC(C)=O)CS[C@H]12)c1csc(N)n1 [Cefotaxime] + CC(=O)NC[C@H]1CN(c2ccc(N3CCOCC3)c(F)c2)C(=O)O1 [Linezolid]
Conditions | Bliss interaction score
[1] | 0.157
[2] | 0.0531
[3] | 0.0544
[4] | -0.0569

Conditions | fitness
[5], first compound 0.0018 µg/mL, partner 0.105 µg/mL | 0.913
[5], first compound 0.0018 µg/mL, partner 0.2 µg/mL | 0.642
[5], first compound 0.0018 µg/mL, partner 0.21 µg/mL | 0.807
[5], first compound 0.0018 µg/mL, partner 0.4 µg/mL | 0.633
[5], first compound 0.0018 µg/mL, partner 0.42 µg/mL | 0.643
[5], first compound 0.0018 µg/mL, partner 0.8 µg/mL | 0.238
[5], first compound 0.0035 µg/mL, partner 0.105 µg/mL | 0.905
[5], first compound 0.0035 µg/mL, partner 0.2 µg/mL | 0.604
[5], first compound 0.0035 µg/mL, partner 0.21 µg/mL | 0.808
[5], first compound 0.0035 µg/mL, partner 0.4 µg/mL | 0.615
[5], first compound 0.0035 µg/mL, partner 0.42 µg/mL | 0.666
[5], first compound 0.0035 µg/mL, partner 0.8 µg/mL | 0.217
[5], first compound 0.007 µg/mL, partner 0.105 µg/mL | 0.797
[5], first compound 0.007 µg/mL, partner 0.2 µg/mL | 0.597
[5], first compound 0.007 µg/mL, partner 0.21 µg/mL | 0.693
[5], first compound 0.007 µg/mL, partner 0.4 µg/mL | 0.58
[5], first compound 0.007 µg/mL, partner 0.42 µg/mL | 0.445
[5], first compound 0.007 µg/mL, partner 0.8 µg/mL | 0.173
[6], first compound 0.039 µg/mL, partner 0.125 µg/mL | 0.737
[6], first compound 0.039 µg/mL, partner 0.25 µg/mL | 0.537
[6], first compound 0.039 µg/mL, partner 0.5 µg/mL | 0.194
[6], first compound 0.078 µg/mL, partner 0.125 µg/mL | 0.689
[6], first compound 0.078 µg/mL, partner 0.25 µg/mL | 0.57
[6], first compound 0.078 µg/mL, partner 0.5 µg/mL | 0.277
[6], first compound 0.156 µg/mL, partner 0.125 µg/mL | 0.745
[6], first compound 0.156 µg/mL, partner 0.25 µg/mL | 0.584
[6], first compound 0.156 µg/mL, partner 0.5 µg/mL | 0.297
[7], first compound 0.5 µg/mL, partner 0.125 µg/mL | 0.298
[7], first compound 0.5 µg/mL, partner 0.25 µg/mL | 0.0555
[7], first compound 0.5 µg/mL, partner 0.5 µg/mL | 0.0506
[7], first compound 1 µg/mL, partner 0.125 µg/mL | 0.218
[7], first compound 1 µg/mL, partner 0.25 µg/mL | 0.0513
[7], first compound 1 µg/mL, partner 0.5 µg/mL | 0.0306
[7], first compound 2 µg/mL, partner 0.125 µg/mL | 0.114
[7], first compound 2 µg/mL, partner 0.25 µg/mL | 0.0572
[7], first compound 2 µg/mL, partner 0.5 µg/mL | 0.0482

one replicate
Conditions | fitness
[6], first compound 0.039 µg/mL, partner 1 µg/mL | 0.0567
[6], first compound 0.078 µg/mL, partner 1 µg/mL | 0.0664
[6], first compound 0.156 µg/mL, partner 1 µg/mL | 0.0626
[6], first compound 0.312 µg/mL, partner 0.125 µg/mL | 0.658
[6], first compound 0.312 µg/mL, partner 0.25 µg/mL | 0.545
[6], first compound 0.312 µg/mL, partner 0.5 µg/mL | 0.342
[7], first compound 0.00775 µg/mL, partner 0.125 µg/mL | 0.688
[7], first compound 0.00775 µg/mL, partner 0.25 µg/mL | 0.141
[7], first compound 0.00775 µg/mL, partner 0.5 µg/mL | 0.0663
[7], first compound 0.0155 µg/mL, partner 0.125 µg/mL | 0.495
[7], first compound 0.0155 µg/mL, partner 0.25 µg/mL | 0.0491
[7], first compound 0.0155 µg/mL, partner 0.5 µg/mL | 0.0426
[7], first compound 0.031 µg/mL, partner 0.125 µg/mL | 0.462
[7], first compound 0.031 µg/mL, partner 0.25 µg/mL | 0.0621
[7], first compound 0.031 µg/mL, partner 0.5 µg/mL | 0.0534
[7], first compound 0.0625 µg/mL, partner 0.0625 µg/mL | 0.553
[7], first compound 0.0625 µg/mL, partner 0.125 µg/mL | 0.327
[7], first compound 0.0625 µg/mL, partner 0.25 µg/mL | 0.0561
[7], first compound 0.125 µg/mL, partner 0.0625 µg/mL | 0.413
[7], first compound 0.125 µg/mL, partner 0.125 µg/mL | 0.216
[7], first compound 0.125 µg/mL, partner 0.25 µg/mL | 0.0505
[7], first compound 0.25 µg/mL, partner 0.0625 µg/mL | 0.308
[7], first compound 0.25 µg/mL, partner 0.125 µg/mL | 0.189
[7], first compound 0.25 µg/mL, partner 0.25 µg/mL | 0.0533
